Assay results from ChEMBL document CHEMBL3877299, “Imidazopyridine-fused [1,3]-diazepinones part 2: Structure-activity relationships and antiproliferative activity against melanoma cells” (Eur J Med Chem, 2017).

Assays:
Format in all cases: functional
[1] = Growth inhibition of human DU145 cells assessed as cell growth at 10 uM incubated for 48 hrs by sulforhodamine B assay relative to control; conditions: DU-145, 48 h, read-out: Activity
[2] = Growth inhibition of human K562 cells assessed as cell growth at 10 uM incubated for 48 hrs by sulforhodamine B assay relative to control; conditions: K562, 48 h, read-out: Activity
[3] = Growth inhibition of human HCT116 cells assessed as cell growth at 10 uM incubated for 48 hrs by sulforhodamine B assay relative to control; conditions: HCT-116, 48 h, read-out: Activity
[4] = Growth inhibition of human BT549 cells assessed as cell growth at 10 uM incubated for 48 hrs by sulforhodamine B assay relative to control; conditions: BT-549, 48 h, read-out: Activity
[5] = Growth inhibition of human COLO205 cells assessed as cell growth at 10 uM incubated for 48 hrs by sulforhodamine B assay relative to control; conditions: COLO 205, 48 h, read-out: Activity
[6] = Growth inhibition of human HOP62 cells assessed as cell growth at 10 uM incubated for 48 hrs by sulforhodamine B assay relative to control; conditions: HOP-62, 48 h, read-out: Activity
[7] = Growth inhibition of human SKOV3 cells assessed as cell growth at 10 uM incubated for 48 hrs by sulforhodamine B assay relative to control; conditions: SK-OV-3, 48 h, read-out: Activity
[8] = Growth inhibition of human NCI-H522 cells assessed as cell growth at 10 uM incubated for 48 hrs by sulforhodamine B assay relative to control; conditions: NCI-H522, 48 h, read-out: Activity
[9] = Growth inhibition of human NCI/ADR-RES cells assessed as cell growth at 10 uM incubated for 48 hrs by sulforhodamine B assay relative to control; conditions: read-out: Activity
[10] = Growth inhibition of human HCT15 cells assessed as cell growth at 10 uM incubated for 48 hrs by sulforhodamine B assay relative to control; conditions: HCT-15, 48 h, read-out: Activity
[11] = Growth inhibition of human NCI-H460 cells assessed as cell growth at 10 uM incubated for 48 hrs by sulforhodamine B assay relative to control; conditions: NCI-H460, 48 h, read-out: Activity
[12] = Growth inhibition of human MDA-MB-435 cells assessed as cell growth at 10 uM incubated for 48 hrs by sulforhodamine B assay relative to control; conditions: MDA-MB-435, 48 h, read-out: Activity
[13] = Growth inhibition of human IGROV1 cells assessed as cell growth at 10 uM incubated for 48 hrs by sulforhodamine B assay relative to control; conditions: IGROV-1, 48 h, read-out: Activity
[14] = Growth inhibition of human SN12C cells assessed as cell growth at 10 uM incubated for 48 hrs by sulforhodamine B assay relative to control; conditions: read-out: Activity
[15] = Growth inhibition of human SNB75 cells assessed as cell growth at 10 uM incubated for 48 hrs by sulforhodamine B assay relative to control; conditions: SNB-75, 48 h, read-out: Activity
[16] = Growth inhibition of human CCRF-CEM cells assessed as cell growth at 10 uM incubated for 48 hrs by sulforhodamine B assay relative to control; conditions: read-out: Activity
[17] = Growth inhibition of human OVCAR8 cells assessed as cell growth at 10 uM incubated for 48 hrs by sulforhodamine B assay relative to control; conditions: OVCAR-8, 48 h, read-out: Activity
[18] = Growth inhibition of human Hs 578T cells assessed as cell growth at 10 uM incubated for 48 hrs by sulforhodamine B assay relative to control; conditions: read-out: Activity
[19] = Growth inhibition of human SF268 cells assessed as cell growth at 10 uM incubated for 48 hrs by sulforhodamine B assay relative to control; conditions: SF-268, 48 h, read-out: Activity
[20] = Growth inhibition of human RPMI8226 cells assessed as cell growth at 10 uM incubated for 48 hrs by sulforhodamine B assay relative to control; conditions: RPMI-8226, 48 h, read-out: Activity
[21] = Growth inhibition of human LOXIMVI cells assessed as cell growth at 10 uM incubated for 48 hrs by sulforhodamine B assay relative to control; conditions: LOX IMVI, read-out: Activity
[22] = Growth inhibition of human EKVX cells assessed as cell growth at 10 uM incubated for 48 hrs by sulforhodamine B assay relative to control; conditions: read-out: Activity
[23] = Growth inhibition of human A498 cells assessed as cell growth at 10 uM incubated for 48 hrs by sulforhodamine B assay relative to control; conditions: A498, 48 h, read-out: Activity
[24] = Growth inhibition of human A549/ATCC cells assessed as cell growth at 10 uM incubated for 48 hrs by sulforhodamine B assay relative to control; conditions: A549, 48 h, read-out: Activity
[25] = Growth inhibition of human SK-MEL-28 cells assessed as cell growth at 10 uM incubated for 48 hrs by sulforhodamine B assay relative to control; conditions: SK-MEL-28, 48 h, read-out: Activity
[26] = Growth inhibition of human MDA-MB-231 cells assessed as cell growth at 10 uM incubated for 48 hrs by sulforhodamine B assay relative to control; conditions: MDA-MB-231, 48 h, read-out: Activity
[27] = Growth inhibition of human OVCAR3 cells assessed as cell growth at 10 uM incubated for 48 hrs by sulforhodamine B assay relative to control; conditions: OVCAR-3, 48 h, read-out: Activity
[28] = Growth inhibition of human NCI-H226 cells assessed as cell growth at 10 uM incubated for 48 hrs by sulforhodamine B assay relative to control; conditions: NCI-H226, 48 h, read-out: Activity
[29] = Growth inhibition of human UO31 cells assessed as cell growth at 10 uM incubated for 48 hrs by sulforhodamine B assay relative to control; conditions: UO-31, 48 h, read-out: Activity
[30] = Growth inhibition of human OVCAR4 cells assessed as cell growth at 10 uM incubated for 48 hrs by sulforhodamine B assay relative to control; conditions: OVCAR-4, 48 h, read-out: Activity
[31] = Growth inhibition of human HL-60(TB) cells assessed as cell growth at 10 uM incubated for 48 hrs by sulforhodamine B assay relative to control; conditions: HL-60, 48 h, read-out: Activity
[32] = Growth inhibition of human SR cells assessed as cell growth at 10 uM incubated for 48 hrs by sulforhodamine B assay relative to control; conditions: read-out: Activity
[33] = Growth inhibition of human SF539 cells assessed as cell growth at 10 uM incubated for 48 hrs by sulforhodamine B assay relative to control; conditions: SF-539, 48 h, read-out: Activity
[34] = Growth inhibition of human 786-0 cells assessed as cell growth at 10 uM incubated for 48 hrs by sulforhodamine B assay relative to control; conditions: 786-0, 48 h, read-out: Activity
[35] = Growth inhibition of human UACC62 cells assessed as cell growth at 10 uM incubated for 48 hrs by sulforhodamine B assay relative to control; conditions: UACC-62, 48 h, read-out: Activity

Row | Compound | growth at 10 µM [1] | growth at 10 µM [2] | growth at 10 µM [3] | growth at 10 µM [4] | growth at 10 µM [5] | growth at 10 µM [6] | growth at 10 µM [7] | growth at 10 µM [8] | growth at 10 µM [9] | growth at 10 µM [10] | growth at 10 µM [11] | growth at 10 µM [12] | growth at 10 µM [13] | growth at 10 µM [14] | growth at 10 µM [15] | growth at 10 µM [16] | growth at 10 µM [17] | growth at 10 µM [18] | growth at 10 µM [19] | growth at 10 µM [20] | other results
1 | C[C@@H]1NC(c2ccc(Cl)cc2)=Nc2nc3ccccn3c2C1=O | 100% | 70% | 97% | 93.6% | 91.8% | 73.3% | 75.5% | 66.3% | 85.6% | 77.6% | 96.1% | 32.9% | 50.7% | 96.8% | 92.5% | 90.8% | 90.3% | 87.1% | 87.3% | 91.3% | growth at 10 µM [21]: 88.2%; growth at 10 µM [22]: 92.4%; growth at 10 µM [23]: 118%; growth at 10 µM [24]: 85.8%; growth at 10 µM [25]: 92.8%; growth at 10 µM [26]: 76%; growth at 10 µM [27]: 84.3%; growth at 10 µM [28]: 88%; growth at 10 µM [29]: 68.2%; growth at 10 µM [30]: 109%; growth at 10 µM [31]: 102%; growth at 10 µM [32]: 46.7%; growth at 10 µM [33]: 84.7%; growth at 10 µM [34]: 108%; growth at 10 µM [35]: 78.6%
2 | CC(C)(C)OC[C@@H]1NC(c2ccc(Br)cc2)=Nc2nc3ccccn3c2C1=O | 82.7% | 25.2% | 43.7% | 72.5% | 62.6% | 54.5% | 64.3% | 33.4% | 39.7% | 44.1% | 41.3% | -13.8% | 40.8% | 84.1% | 77.4% | 67.8% | 79.5% | 65.2% | 74.3% | 67.5% | growth at 10 µM [21]: 58.7%; growth at 10 µM [22]: 81.6%; growth at 10 µM [23]: 66.9%; growth at 10 µM [24]: 51.6%; growth at 10 µM [25]: 68.6%; growth at 10 µM [26]: 61.5%; growth at 10 µM [27]: 34.2%; growth at 10 µM [28]: 78.1%; growth at 10 µM [29]: 52.1%; growth at 10 µM [30]: 82.3%; growth at 10 µM [31]: 33.1%; growth at 10 µM [32]: 35.4%; growth at 10 µM [33]: 75.8%; growth at 10 µM [34]: 94.2%; growth at 10 µM [35]: 53.6%
3 | C[C@@H]1NC(c2ccc3ccccc3c2)=Nc2nc3ccccn3c2C1=O | 73.3% | 27.6% | 18.3% | 35.1% | 22.8% | 36.7% | 40.5% | 29.4% | 44.5% | 33.8% | 15.2% | -24.6% | 32.1% | 60.1% | 37.1% | 52.9% | 54.4% | 29.3% | 58% | 43.8% | growth at 10 µM [21]: 48.5%; growth at 10 µM [22]: 75.6%; growth at 10 µM [23]: 47.2%; growth at 10 µM [24]: 39.5%; growth at 10 µM [25]: 59.9%; growth at 10 µM [26]: 52.5%; growth at 10 µM [27]: 16.9%; growth at 10 µM [28]: 64.5%; growth at 10 µM [29]: 55.6%; growth at 10 µM [30]: 74.5%; growth at 10 µM [31]: -6.75%; growth at 10 µM [32]: 30.5%; growth at 10 µM [33]: 37.2%; growth at 10 µM [34]: 69.3%; growth at 10 µM [35]: 48.8%
4 | C[C@@H]1NC(c2ccc(Cl)cc2Cl)=Nc2nc3ccccn3c2C1=O | 64.8% | 23.6% | 28.1% | 55.6% | 22.3% | 52.6% | 50.1% | 28.9% | 44.5% | 35.1% | 18.7% | -16.6% | 41.9% | 75.8% | 58.7% | 56.6% | 68.1% | 52% | 58.9% | 75.2% | growth at 10 µM [21]: 51.3%; growth at 10 µM [22]: 82.5%; growth at 10 µM [23]: 60.7%; growth at 10 µM [24]: 40.6%; growth at 10 µM [25]: 60.7%; growth at 10 µM [26]: 64.6%; growth at 10 µM [27]: 2.44%; growth at 10 µM [28]: 75.7%; growth at 10 µM [29]: 52.4%; growth at 10 µM [30]: 89.5%; growth at 10 µM [31]: 0.46%; growth at 10 µM [32]: 33%; growth at 10 µM [33]: 53%; growth at 10 µM [34]: 73.2%; growth at 10 µM [35]: 40.5%
